According to publication PMC10733463, “Berberine-microbiota interplay: orchestrating gut health through modulation of the gut microbiota and metabolic transformation into bioactive metabolites” (Frontiers in Pharmacology, 2023):

System: caecal microbiota cultures
Assay: 16S sequencing of total (DNA) and active (cDNA) community in caecal microbiota cultures, BBR vs Control
Format: cell-based, broiler chicken
Conditions: 48 h

## COc1ccc2cc3[n+](cc2c1OC)CCc1cc2c(cc1-3)OCO2 [Berberine, Berberine chloride]
  L2FC BBRDNA vs ControlDNA: 0.44
  L2FC BBRRNA vs BBRDNA: 3.40
  L2FC BBRRNA vs ControlRNA: 1.34
OTU 40798 (Butyricicoccus), active (cDNA) community
  L2FC BBRRNA vs ControlRNA: 0.45
OTU 40798 (Butyricicoccus), active vs total community in BBR group
  L2FC BBRRNA vs BBRDNA: -4.40
OTU 40798 (Butyricicoccus), total (DNA) community
  L2FC BBRDNA vs ControlDNA: 0.83
OTU 109633 (Eubacterium), active (cDNA) community
  L2FC BBRRNA vs ControlRNA: 1.92
OTU 109633 (Eubacterium), active vs total community in BBR group
  L2FC BBRRNA vs BBRDNA: -0.64
OTU 109633 (Eubacterium), total (DNA) community
  L2FC BBRDNA vs ControlDNA: 1.75
OTU 129401 (Family_Ruminococcaceae), active (cDNA) community
  L2FC BBRRNA vs ControlRNA: 1.00
OTU 129401 (Family_Ruminococcaceae), active vs total community in BBR group
  L2FC BBRRNA vs BBRDNA: 1.99
OTU 129401 (Family_Ruminococcaceae), total (DNA) community
  L2FC BBRDNA vs ControlDNA: 0.84
OTU 157573 (Alistipes), active (cDNA) community
  L2FC BBRRNA vs ControlRNA: -0.29
OTU 157573 (Alistipes), active vs total community in BBR group
  L2FC BBRRNA vs BBRDNA: 1.91
OTU 157573 (Alistipes), total (DNA) community
  L2FC BBRDNA vs ControlDNA: 0.19
OTU 157772 (uncultured Ruminococcaceae), active (cDNA) community
  L2FC BBRRNA vs ControlRNA: -0.27
OTU 157772 (uncultured Ruminococcaceae), active vs total community in BBR group
  L2FC BBRRNA vs BBRDNA: 1.68
OTU 157772 (uncultured Ruminococcaceae), total (DNA) community
  L2FC BBRDNA vs ControlDNA: -0.36
OTU 180099 (uncultured Lachnospiraceae), active (cDNA) community
  L2FC BBRRNA vs ControlRNA: -0.96
OTU 180099 (uncultured Lachnospiraceae), active vs total community in BBR group
  L2FC BBRRNA vs BBRDNA: -0.59
OTU 180099 (uncultured Lachnospiraceae), total (DNA) community
  L2FC BBRDNA vs ControlDNA: -1.55
OTU 186881 (Anaerofilum), active (cDNA) community
  L2FC BBRRNA vs ControlRNA: -1.11
OTU 186881 (Anaerofilum), active vs total community in BBR group
  L2FC BBRRNA vs BBRDNA: -0.59
OTU 186881 (Anaerofilum), total (DNA) community
  L2FC BBRDNA vs ControlDNA: -1.53
OTU 193240 (Butyricicoccus), active (cDNA) community
  L2FC BBRRNA vs ControlRNA: -1.08
OTU 193240 (Butyricicoccus), active vs total community in BBR group
  L2FC BBRRNA vs BBRDNA: -1.42
OTU 193240 (Butyricicoccus), total (DNA) community
  L2FC BBRDNA vs ControlDNA: -1.34
OTU 196831 (Oscillibacter), active (cDNA) community
  L2FC BBRRNA vs ControlRNA: 0.14
OTU 196831 (Oscillibacter), active vs total community in BBR group
  L2FC BBRRNA vs BBRDNA: 2.09
OTU 196831 (Oscillibacter), total (DNA) community
  L2FC BBRDNA vs ControlDNA: 0.24
OTU 199555 ([Ruminococcus] torques group), active (cDNA) community
  L2FC BBRRNA vs ControlRNA: -1.39
OTU 199555 ([Ruminococcus] torques group), active vs total community in BBR group
  L2FC BBRRNA vs BBRDNA: -0.15
OTU 199555 ([Ruminococcus] torques group), total (DNA) community
  L2FC BBRDNA vs ControlDNA: -1.72
OTU 233953 (Erysipelatoclostridium), active (cDNA) community
  L2FC BBRRNA vs ControlRNA: -1.85
OTU 233953 (Erysipelatoclostridium), active vs total community in BBR group
  L2FC BBRRNA vs BBRDNA: -0.21
OTU 233953 (Erysipelatoclostridium), total (DNA) community
  L2FC BBRDNA vs ControlDNA: -1.14
OTU 234912 (Ruminococcaceae UCG-013), active (cDNA) community
  L2FC BBRRNA vs ControlRNA: -2.52
OTU 234912 (Ruminococcaceae UCG-013), active vs total community in BBR group
  L2FC BBRRNA vs BBRDNA: -0.46
OTU 234912 (Ruminococcaceae UCG-013), total (DNA) community
  L2FC BBRDNA vs ControlDNA: -3.19
OTU 240271 (uncultured Ruminococcaceae), active (cDNA) community
  L2FC BBRRNA vs ControlRNA: 0.20
OTU 240271 (uncultured Ruminococcaceae), active vs total community in BBR group
  L2FC BBRRNA vs BBRDNA: 1.89
OTU 240271 (uncultured Ruminococcaceae), total (DNA) community
  L2FC BBRDNA vs ControlDNA: 0.33
OTU 249142 ([Ruminococcus] torques group), active (cDNA) community
  L2FC BBRRNA vs ControlRNA: -3.17
OTU 249142 ([Ruminococcus] torques group), active vs total community in BBR group
  L2FC BBRRNA vs BBRDNA: -0.87
OTU 249142 ([Ruminococcus] torques group), total (DNA) community
  L2FC BBRDNA vs ControlDNA: -2.54
OTU 293975 (uncultured Lachnospiraceae), active (cDNA) community
  L2FC BBRRNA vs ControlRNA: -2.01
OTU 293975 (uncultured Lachnospiraceae), active vs total community in BBR group
  L2FC BBRRNA vs BBRDNA: 0.18
OTU 293975 (uncultured Lachnospiraceae), total (DNA) community
  L2FC BBRDNA vs ControlDNA: -1.62
OTU 294545 (Ruminiclostridium), active (cDNA) community
  L2FC BBRRNA vs ControlRNA: -0.23
OTU 294545 (Ruminiclostridium), active vs total community in BBR group
  L2FC BBRRNA vs BBRDNA: 1.73
OTU 294545 (Ruminiclostridium), total (DNA) community
  L2FC BBRDNA vs ControlDNA: 0.21
OTU 308157 (Butyricicoccus), active (cDNA) community
  L2FC BBRRNA vs ControlRNA: 0.37
OTU 308157 (Butyricicoccus), active vs total community in BBR group
  L2FC BBRRNA vs BBRDNA: -1.55
OTU 308157 (Butyricicoccus), total (DNA) community
  L2FC BBRDNA vs ControlDNA: 0.47
OTU 315223 (Anaerotruncus), active (cDNA) community
  L2FC BBRRNA vs ControlRNA: 0.81
OTU 315223 (Anaerotruncus), active vs total community in BBR group
  L2FC BBRRNA vs BBRDNA: 2.28
OTU 315223 (Anaerotruncus), total (DNA) community
  L2FC BBRDNA vs ControlDNA: 0.02
OTU 349246 (Ruminiclostridium 9), active (cDNA) community
  L2FC BBRRNA vs ControlRNA: -1.09
OTU 349246 (Ruminiclostridium 9), active vs total community in BBR group
  L2FC BBRRNA vs BBRDNA: 1.04
OTU 349246 (Ruminiclostridium 9), total (DNA) community
  L2FC BBRDNA vs ControlDNA: -0.39
OTU 350256 (Intestinimonas), active (cDNA) community
  L2FC BBRRNA vs ControlRNA: -0.58
OTU 350256 (Intestinimonas), active vs total community in BBR group
  L2FC BBRRNA vs BBRDNA: 1.65
OTU 350256 (Intestinimonas), total (DNA) community
  L2FC BBRDNA vs ControlDNA: -0.23
OTU 356073 ([Eubacterium] xylanophilum group), active (cDNA) community
  L2FC BBRRNA vs ControlRNA: -1.98
OTU 356073 ([Eubacterium] xylanophilum group), active vs total community in BBR group
  L2FC BBRRNA vs BBRDNA: -1.05
OTU 356073 ([Eubacterium] xylanophilum group), total (DNA) community
  L2FC BBRDNA vs ControlDNA: -1.79
OTU 362793 (Oscillibacter), active (cDNA) community
  L2FC BBRRNA vs ControlRNA: 0.13
OTU 362793 (Oscillibacter), active vs total community in BBR group
  L2FC BBRRNA vs BBRDNA: 2.11
OTU 362793 (Oscillibacter), total (DNA) community
  L2FC BBRDNA vs ControlDNA: 0.33
OTU 364341 (Family_Ruminococcaceae), active (cDNA) community
  L2FC BBRRNA vs ControlRNA: 0.25
OTU 364341 (Family_Ruminococcaceae), active vs total community in BBR group
  L2FC BBRRNA vs BBRDNA: 1.56
OTU 364341 (Family_Ruminococcaceae), total (DNA) community
  L2FC BBRDNA vs ControlDNA: 0.20
OTU 368615 (uncultured Lachnospiraceae), active (cDNA) community
  L2FC BBRRNA vs ControlRNA: -0.96
OTU 368615 (uncultured Lachnospiraceae), active vs total community in BBR group
  L2FC BBRRNA vs BBRDNA: -1.57
OTU 368615 (uncultured Lachnospiraceae), total (DNA) community
  L2FC BBRDNA vs ControlDNA: -0.96
OTU 408513 (Ruminiclostridium 9), active (cDNA) community
  L2FC BBRRNA vs ControlRNA: -3.12
OTU 408513 (Ruminiclostridium 9), active vs total community in BBR group
  L2FC BBRRNA vs BBRDNA: 1.43
OTU 408513 (Ruminiclostridium 9), total (DNA) community
  L2FC BBRDNA vs ControlDNA: -2.29
OTU 443620 (uncultured Ruminococcaceae), active (cDNA) community
  L2FC BBRRNA vs ControlRNA: -0.74
OTU 443620 (uncultured Ruminococcaceae), active vs total community in BBR group
  L2FC BBRRNA vs BBRDNA: 0.61
OTU 443620 (uncultured Ruminococcaceae), total (DNA) community
  L2FC BBRDNA vs ControlDNA: 0.83
OTU 461487 (Ruminococcaceae UCG-014), active (cDNA) community
  L2FC BBRRNA vs ControlRNA: -0.55
OTU 461487 (Ruminococcaceae UCG-014), active vs total community in BBR group
  L2FC BBRRNA vs BBRDNA: -3.30
OTU 461487 (Ruminococcaceae UCG-014), total (DNA) community
  L2FC BBRDNA vs ControlDNA: -0.15
OTU 510295 (Fournierella), active (cDNA) community
  L2FC BBRRNA vs ControlRNA: 0.35
OTU 510295 (Fournierella), active vs total community in BBR group
  L2FC BBRRNA vs BBRDNA: -2.43
OTU 510295 (Fournierella), total (DNA) community
  L2FC BBRDNA vs ControlDNA: 0.86
OTU 519763 (Intestinimonas), active (cDNA) community
  L2FC BBRRNA vs ControlRNA: 1.22
OTU 519763 (Intestinimonas), active vs total community in BBR group
  L2FC BBRRNA vs BBRDNA: 2.52
OTU 519763 (Intestinimonas), total (DNA) community
  L2FC BBRDNA vs ControlDNA: 1.10
